Measured values taken from paper PMC509409, “Recognition and Accommodation at the Androgen Receptor Coactivator Binding Interface” (PLoS Biology, 2004).
Where a SMILES comes first, the peptide text is derived from it. The star is where a group is joined. Biotin = O=C1N[C@H]2[C@H](CS[C@H]2CCCCC(=O)*)N1

Experiments:
AR LBD [1] = molecular target: T1, AR LBD (Pan troglodytes, UniProt O97775); assay: X-ray crystal structures of AR LBD-peptide complexes, buried surface area; type: chimp (100% identity to the human form in protein sequence); conditions: calculated with CNS from crystal structure; for Buried surface area, +1: +1 residue; for Buried surface area, +1 / Buried surface area, +4 / Buried surface area, +5: side chain atoms only; for Buried surface area, +4: +4 residue; for Buried surface area, +5: +5 residue; for Buried surface area, Total: AR LBD-peptide complex, DHT-bound
T1 construct: chimp AR LBD (residues 663–919—human numbering); GST (N, cleaved yes); made in house; host or cells: E. coli BL21 (DE3) STAR
T1 sequence (O97775 655-911 limits assumed): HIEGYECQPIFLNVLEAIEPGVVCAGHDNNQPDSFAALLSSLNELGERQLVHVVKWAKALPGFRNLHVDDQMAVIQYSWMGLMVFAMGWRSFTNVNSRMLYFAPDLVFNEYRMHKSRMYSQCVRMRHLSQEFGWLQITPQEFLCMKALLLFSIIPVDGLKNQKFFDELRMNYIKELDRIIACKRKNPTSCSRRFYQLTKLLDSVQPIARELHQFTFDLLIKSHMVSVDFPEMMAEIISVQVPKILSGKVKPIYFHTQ
Procedure: (§1) Expression and purification of the AR LBD for crystallization were performed essentially as described ([Matias et al. 2000]). […] Induction was carried out with 30 μM IPTG at 17 °C for 16–18 h. E. coli cells were lysed in buffer (10 mM Tris, [pH 8.0], 150 mM NaCl, 10% glycerol, 1 mM TCEP, 0.2 mM PMSF) supplemented with 0.5 μg/ml lysozyme, 5 U/ml benzonase, 0.5% CHAPS, and 10 μM DHT. All buffers for further purification steps contained 1 μM DHT. Soluble cell lysate was adsorbed to Glutathione Sepharose 4 Fast Flow resin (Amersham Biosciences), washed with buffer containing 0.1% n-octyl β-glucoside, and eluted with 15 mM glutathione. After cleavage of the GST moiety with thrombin, final purification of the AR LBD was carried out using a HiTrap SP cation exchange column (Amersham Biosciences). Eluted AR LBD was dialyzed overnight at 4 °C against buffer containing 50 mM HEPES (pH 7.2), 10% glycerol, 0.2 mM TCEP, 20 μM DHT, 150 mM Li2SO4, and 0.1% n-octyl β-glucoside, then concentrated to greater than 4 mg/ml for crystallization.
Purified, concentrated AR LBD was combined with 3x to 6x molar excess of peptide and incubated 1 h at room temperature before crystallization trials. Complexes were crystallized using the hanging drop vapor diffusion method. Protein–peptide solution was combined in a 1:1 ratio with a well solution consisting of 0.6–0.8 M sodium citrate and 100 mM Tris or HEPES buffer (pH 7–8). Crystals typically appeared after 1–2 d, with maximal size attained within 2 wk. For data collection, crystals were swiped into a cryo-protectant solution consisting of well solution plus 10% glycerol before flash freezing in liquid nitrogen. The addition of ethylene glycol to a well concentration of 10%–20% was later found to both improve crystal quality and enable the freezing of crystals directly out of the drop.
Datasets were collected at 100K at the Advanced Light Source (Lawrence Berkeley Laboratory, Berkeley, California, United States), beamline 8.3.1, with either a ADSC Quantum 315 or Quantum 210 CCD detector. Data were processed using Denzo and Scalepack ([Otwinowski and Minor 1997]). Molecular replacement searches were performed with rotation and translation functions from CNS ([Brunger et al. 1998]). Initial searches for AR–FxxLF were performed using the structure of AR–R1881 (PDB: 1E3G) with R1881 omitted from the search model. Subsequent searches for all other complexes were performed using the refined LBD structure from the AR–FxxLF complex. To minimize the possibility of model bias, FxxLF peptide and DHT were omitted from all molecular replacement searches. Protein models were built by iterative rounds of simulated annealing, conjugate gradient minimization, and individual B-factor refinement in CNS followed by manual rebuilding in Quanta 2000 (Accelrys, San Diego, California, United States) using σA-weighted 2F o − F c, F o − F c, and simulated annealing composite omit maps. Superposition of structures was performed with LSQMAN ([Kleywegt 1996]). Buried surface area calculations were performed with CNS. All figures were generated with PyMOL ([DeLano 2002]). Coordinates and structure factors for all complexes have been deposited in the Protein Data Bank.

AR LBD [2] = molecular target: T1, AR LBD; assay: Surface plasmon resonance (Biacore 2000), peptide binding to AR LBD; type: chimp (100% identity to the human form in protein sequence); conditions: for ka1 × 10^-4: association rate, biotinylated peptide immobilised (approx. 250 RU), AR LBD 10, 5, 1 μM and 300 nM, SMRT2 signal subtracted, values are ka1 multiplied by 10^-4; for ka1 × 10^-4 / kd1 × 10^2: step 1 of two-state conformational change model; for ka1 × 10^-4 / Kd2 / kd1 × 10^2 / ka2 × 10^3 / kd2 × 10^3: HBS-P pH 7.4; for Kd2: dissociation constant of step 2, calculated from rate constants, two-state conformational change model; for kd1 × 10^2: dissociation rate, values are kd1 multiplied by 10^2; for ka2 × 10^3: forward rate, values are ka2 multiplied by 10^3; for ka2 × 10^3 / kd2 × 10^3: step 2 of two-state conformational change model; for kd2 × 10^3: reverse rate, values are kd2 multiplied by 10^3
Procedure: as §1
Affinities of peptides to the AR LBD were determined with a Biacore (Piscataway, New Jersey, United States) 2000 instrument. A peptide derived from silencing mediator for RXR and TR 2 (SMRT2) served as a negative control. 1 mM peptide stock solutions in DMSO were diluted into HBS-P buffer (10 mM HEPES [pH 7.4], 150 mM NaCl, 0.005% Surfactant P20) to generate 10 μM working solutions. HBS-P buffer was flowed through the cells to achieve a stable baseline prior to immobilization of the biotinylated peptides. To achieve the binding of approximately 250 RU of peptides to individual cells, working solutions of peptides were diluted to 100 nM in HBS-P buffer. Unbound streptavidin sites were blocked by injection of a 1 mM biotin solution at a rate of 10 μl/min.
Purified AR LBD was diluted into HBS-P buffer to a concentration of 10 μM and injected into all four Flowcells using the Kinject protocol at a flow rate of 10 μl/min (contact time 360 s, dissociation time 360 s). Following the dissociation phase, the surface of the chip was regenerated to remove residual AR LBD by QuickInject of buffer containing 10 mM HEPES and 50% ethylene glycol (pH 11). Following the establishment of a stable baseline, the same procedure was repeated using a series of AR LBD dilutions (5 μM, 1 μM, and 300 nM) in an iterative manner. Analysis of the data was performed using BIAevaluation 3.0 software (Biacore). The SMRT2 signals were subtracted as background from the three remaining peptide signals. Data were best fit using the two-state conformational change model ([Warnmark et al. 2001], [2002]).

AR LBD [3] = molecular target: T1, AR LBD; assay: FRET-based assay of interaction between synthetic peptide and purified AR LBD; type: binding, chimp (100% identity to the human form in protein sequence); conditions: in vitro; excitation 320 nm, emission 625 and 665 nm; streptavidin-cryptate / streptavidin-XL665; unpublished data
Procedure: Synthetic peptides corresponding to the deduced amino acid sequences from receptor-specific phage were tested for their ability to interact with purified AR LBD using a FRET–based assay format. […] Flourophor conjugates were prepared by incubating either biotinylated peptides with streptavidin-cryptate (Cis Bio International, Bagnols Sur Ceze Cedex, France), or biotinylated AR LBD with streptavidin-XL665 (Cis Bio). Interaction between peptide and AR LBD was monitored by the ratio of energy transfer by excitation at 320 nm and emission at 625 nm and 665 nm.

| SMILES | Buried surface area, +1 (AR LBD [1]) [Å^2] | Buried surface area, +4 (AR LBD [1]) [Å^2] | Buried surface area, +5 (AR LBD [1]) [Å^2] | Buried surface area, Total (AR LBD [1]) [Å^2] | ka1 × 10^-4 (AR LBD [2]) [M^-2s^-1] | affinity relative to FxxLF (AR LBD [2]; comparison with FxxLF) | Kd2 (AR LBD [2]) | kd1 × 10^2 (AR LBD [2]) [M^-1s^-1] | ka2 × 10^3 (AR LBD [2]) [M^--1s^-1] | kd2 × 10^3 (AR LBD [2]) [M^-1s^-1] | affinity for AR (AR LBD [2]) | fold weaker affinity than FxxLF (AR LBD [2]; Kd ratio relative to FxxLF) | affinity relative to tightest binding p160-derived LxxLL motif, NR box 3 of TIF2 (AR LBD [2]; compared with earlier value for TIF2 NR box 3 (He and Wilson 2003)) | binding to AR in FRET-based screens (AR LBD [3]) |
| --- | --- | --- | --- | --- | --- | --- | --- | --- | --- | --- | --- | --- | --- | --- |
| CC(C)C[C@H](NC(=O)[C@H](C)NC(=O)[C@H](C)NC(=O)[C@H](Cc1ccccc1)NC(=O)[C@H](CCCCN)NC(=O)[C@H](CO)NC(=O)[C@@H](N)CO)C(=O)N[C@@H](Cc1c[nH]c2ccccc12)C(=O)N[C@@H](CC(=O)O)C(=O)N1CCC[C@H]1C(=O)N1CCC[C@H]1C(=O)N[C@@H](CCCCN)C(=O)N[C@@H](CC(C)C)C(=O)N[C@@H](CO)C(=O)N[C@@H](CCCNC(=N)N)C(=O)N[C@@H](CO)C(=O)NCC(=O)N[C@@H](CO)C(=O)NCC(=O)N[C@@H](CCCCNC(=O)CCCC[C@@H]1SC[C@@H]2NC(=O)N[C@@H]21)C(=O)O [FxxLW] (H-SSKFAALWDPPKLSRSGSGK(Biotin)-OH; N-terminus and C-terminus assumed) | 315 | 187 | 313 | 937 | 5.9±1.5 | slightly better than FxxLF | 1.6±0.2 | 3.4±0.04 | 3.6±0.3 | 5.6±0.05 | – | – | – | – |
| CC(C)C[C@H](NC(=O)CNC(=O)[C@H](CCCNC(=N)N)NC(=O)[C@H](CO)NC(=O)[C@@H](N)CO)C(=O)N[C@@H](CC(C)C)C(=O)N[C@@H](Cc1c[nH]c2ccccc12)C(=O)N[C@@H](CC(=O)O)C(=O)N[C@@H](CC(C)C)C(=O)N[C@@H](CC(C)C)C(=O)N[C@H](C(=O)N[C@@H](CCCCN)C(=O)N[C@@H](CC(=O)O)C(=O)N[C@@H](CO)C(=O)N[C@@H](CCCNC(=N)N)C(=O)N[C@@H](CO)C(=O)NCC(=O)N[C@@H](CO)C(=O)NCC(=O)N[C@@H](CCCCNC(=O)CCCC[C@@H]1SC[C@@H]2NC(=O)N[C@@H]21)C(=O)O)[C@@H](C)O [LxxLL] (H-SSRGLLWDLLTKDSRSGSGK(Biotin)-OH; N-terminus and C-terminus assumed) | 271 | 193 | 241 | 984 | 6.2±4.3 | – | 1.6±0.2 | 7.0±0.17 | 3.2±0.4 | 5.0±0.04 | moderate affinity | less than 2 -fold | more than three times stronger | demonstrated to bind AR in FRET-based screens in vitro |
| CC(C)C[C@H](NC(=O)[C@H](CO)NC(=O)[C@H](CCC(=O)O)NC(=O)[C@H](Cc1ccccc1)NC(=O)[C@H](CCCNC(=N)N)NC(=O)[C@H](CO)NC(=O)[C@@H](N)CO)C(=O)N[C@@H](Cc1ccccc1)C(=O)N[C@@H](C)C(=O)NCC(=O)N[C@@H](CCC(=O)O)C(=O)N[C@@H](CCCCN)C(=O)N[C@@H](CCC(=O)O)C(=O)N[C@@H](CO)C(=O)N[C@@H](CCCNC(=N)N)C(=O)N[C@@H](CO)C(=O)NCC(=O)N[C@@H](CO)C(=O)NCC(=O)N[C@@H](CCCCNC(=O)CCCC[C@@H]1SC[C@@H]2NC(=O)N[C@@H]21)C(=O)O [FxxLF] (H-SSRFESLFAGEKESRSGSGK(Biotin)-OH; N-terminus and C-terminus assumed) | 305 | 189 | 276 | 1012 | 5.2±1.0 | – | 2.6±1.0 | 2.3±0.03 | 1.3±0.5 | 3.5±0.06 | – | – | – | – |
